Data: US20210355104A1, “ADENOSINE RECEPTOR BINDING COMPOUNDS” (Nikang Therapeuticsm Inc., priority 2018, published 2021)
Where “and” joins values, the source holds several entries; their conditions need not be identical. Equal entries are not always repeated.

What follows are compounds tested against Adenosine A2A receptor (Homo sapiens, UniProt P29274) (assay: Adenosine A2A receptor competitive binding assay (Tag-lite HTRF)). Details: Tag-lite adenosine A2A receptor ligand binding, 2 h room temperature; values separated by / are repeat determinations.
Chain of Adenosine A2A receptor (P29274 whole entry): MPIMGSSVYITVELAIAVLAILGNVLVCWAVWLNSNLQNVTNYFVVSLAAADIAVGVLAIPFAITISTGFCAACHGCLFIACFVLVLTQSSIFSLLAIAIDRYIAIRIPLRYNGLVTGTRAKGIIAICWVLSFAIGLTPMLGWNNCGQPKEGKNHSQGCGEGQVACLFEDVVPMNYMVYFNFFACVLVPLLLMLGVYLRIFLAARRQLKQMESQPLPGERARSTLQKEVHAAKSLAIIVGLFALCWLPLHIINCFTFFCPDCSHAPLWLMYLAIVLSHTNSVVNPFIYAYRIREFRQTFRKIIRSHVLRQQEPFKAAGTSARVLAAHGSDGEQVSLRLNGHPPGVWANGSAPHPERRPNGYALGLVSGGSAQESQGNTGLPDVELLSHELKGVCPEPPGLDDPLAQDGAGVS
Description: Adenosine A2A Receptor Competitive Binding Assay
The Tag-lite adenosine A2A receptor ligand binding assay is a homogeneous alternative to radioligand binding assay and developed by Cisbio (Bedford, Mass.). We carried out this assay following Cisbio's instructions with minor modification. Pre-transfected, fluorescent donor-labelled cells (Cisbio Cat#: C1TT1A2A, 200 testes) was stored at −80° C. and thawed right before use. Cells were washed once with 5 ml TLB and gently resuspended in 2 ml TLB. 4 μl suspended cells was dispensed into each well of white low-volume 384-well plate (Greiner Bio-One). Serial dilutions of compounds were prepared in Tag-lite buffer (TLB, Cisbio Cat #: LABMED) to a DMSO concentration of 0.6%. After adding 4 μl of compound dilutions to each well, 4 μl60 nM Adenosine A2A receptor red antagonist fluorescent ligand (Cisbio Cat #: L0058RED) was dispensed to each well. The 384-well assay plate was centrifuged briefly and incubated at room temperature for 2 h. HTRF signals were measured using CIARIOstar plate reader (BMG Labtech).
An IC50 of 61 nM was found for `Cc1cc(-c2c(OCC3CCN(S(C)(=O)=O)CC3)nc(N)nc2-c2ccc(F)cc2)cc(C(F)F)n1` [Example 96, 5-(2-(difluoromethyl)-6-methylpyridin-4-yl)-4-(4-fluorophenyl)-6-((1-(methylsulfonyl)piperidin-4-yl)methoxy)pyrimidin-2-amine] in this work. An IC50 of 9.95 nM was found for `CCN(CC)C(=O)CNc1nc(N)nc(-c2ccccc2)c1-c1cc(C)nc(C(F)(F)F)c1` [Example 30, 2-((2-amino-5-(2-methyl-6-(trifluoromethyl)pyridin-4-yl)-6-phenylpyrimidin-4-yl)amino)-N,N-diethylacetamide] in this work. An IC50 of 111 nM was found for `CCN(CC)C(=O)OCc1nc(N)nc(-c2ccccc2)c1-c1cc(C)nc(C(F)(F)F)c1` [Example 21, (2-amino-5-(2-methyl-6-(trifluoromethyl)pyridin-4-yl)-6-phenylpyrimidin-4-yl)methyl diethylcarbamate] in this work. An IC50 of 1780 nM was found for `CNCc1nc(N)nc(-c2ccccc2)c1-c1cc(C)nc(C(F)(F)F)c1` [Example 22, 5-(2-methyl-6-(trifluoromethyl)pyridin-4-yl)-4-((methylamino)methyl)-6-phenylpyrimidin-2-amine] in this work. An IC50 of 266 nM was found for `Cc1cc(-c2c(OCC(=O)NCCN(C)C)nc(N)nc2-c2ccc(F)cc2)cc(C(F)F)n1` [Example 43, 2-((2-amino-5-(2-(difluoromethyl)-6-methylpyridin-4-yl)-6-(4-fluorophenyl)pyrimidin-4-yl)oxy)-N-(2-(dimethylamino)ethyl)acetamide] in this work. An IC50 of 118 nM was found for `Cc1cc(-c2c(CNCC(F)(F)F)nc(N)nc2-c2ccccc2)cc(C(F)(F)F)n1` [Example 24, 5-(2-methyl-6-(trifluoromethyl)pyridin-4-yl)-4-phenyl-6-(((2,2,2-trifluoroethyl)amino)methyl)pyrimidin-2-amine] in this work. In the case of `Cc1cc(-c2c(OCC3(O)CCOCC3)nc(N)nc2-c2ccc(F)cc2)cc(C(F)F)n1` [Example 104, 4-(((2-amino-5-(2-(difluoromethyl)-6-methylpyridin-4-yl)-6-(4-fluorophenyl)pyrimidin-4-yl)oxy)methyl)tetrahydro-2H-pyran-4-ol], the IC50 is reported as > 1000 nM. An IC50 of 8.35 nM was found for `CC(=O)N1CCN(c2ccc(CCOc3nc(N)nc(-c4ccc(F)cc4)c3-c3cc(C)nc(C(F)F)c3)cc2)CC1` [Example 31, 1-(4-[4-[2-([2-amino-5-[2-(difluoromethyl)-6-methylpyridin-4-yl]-6-(4-fluorophenyl)pyrimidin-4-yl]oxy)ethyl]phenyl]piperazin-1-yl)ethan-1-one] in this work. An IC50 of 41 nM was found for `COC(=O)Nc1ccc(CCOc2nc(N)nc(-c3ccc(F)cc3)c2-c2cc(C)nc(C(F)F)c2)cc1` [Example 72, Methyl(4-(2-((2-amino-5-(2-(difluoromethyl)-6-methylpyridin-4-yl)-6-(4-fluorophenyl)pyrimidin-4-yl)oxy)ethyl)phenyl)carbamate] in this work. For `Cc1cc(-c2c(OCC(O)C(C)(C)O)nc(N)nc2-c2ccc(F)cc2)cc(C(F)F)n1` (stereo not drawn) [Example 91, 1-((2-amino-5-(2-(difluoromethyl)-6-methylpyridin-4-yl)-6-(4-fluorophenyl)pyrimidin-4-yl)oxy)-3-methylbutane-2,3-diol], the IC50 was > 1000 nM. An IC50 of 11.4 nM was found for `Cc1cc(-c2c(OCCN3CCOCC3)nc(N)nc2-c2ccc(F)cc2)cc(C(F)F)n1` [Example 36, 5-(2-(difluoromethyl)-6-methylpyridin-4-yl)-4-(4-fluorophenyl)-6-(2-morpholinoethoxy)pyrimidin-2-amine] in this work. An IC50 of 1210 nM was found for `Cc1cc(-c2c(OCC(=O)NC3CCN(C)CC3)nc(N)nc2-c2ccc(F)cc2)cc(C(F)F)n1` [Example 44, 2-((2-amino-5-(2-(difluoromethyl)-6-methylpyridin-4-yl)-6-(4-fluorophenyl)pyrimidin-4-yl)oxy)-N-(1-methylpiperidin-4-yl)acetamide] in this work. An IC50 of 222 nM was found for `Cc1cc(-c2c(C(=O)NCc3cccc(C(C)C)n3)nc(N)nc2-c2ccc(F)cc2)cc(C(F)F)n1` [Example 108, 2-amino-5-(2-(difluoromethyl)-6-methylpyridin-4-yl)-6-(4-fluorophenyl)-N-((6-isopropylpyridin-2-yl)methyl)pyrimidine-4-carboxamide] in this work. An IC50 of 133 nM was found for `Cc1cc(-c2c(OCCc3ccc(C#N)cc3)nc(N)nc2-c2ccc(F)cc2)cc(C(F)F)n1` [Example 93, 4-(2-((2-amino-5-(2-(difluoromethyl)-6-methylpyridin-4-yl)-6-(4-fluorophenyl)pyrimidin-4-yl)oxy)ethyl)benzonitrile] in this work. An IC50 of 52 nM was found for `Cc1cc(-c2c(CO)nc(N)nc2-c2ccccc2)cc(C(F)(F)F)n1` [Example 19, (2-amino-5-(2-methyl-6-(trifluoromethyl)pyridin-4-yl)-6-phenylpyrimidin-4-yl)methanol] in this work. An IC50 of 15.9 nM was found for `CCN(CC)C(=O)COc1nc(N)nc(-c2ccc(F)cc2)c1-c1cc(C)nc(C(F)(F)F)c1` [Example 27, 2-[[2-amino-6-(4-fluorophenyl)-5-[2-methyl-6-(trifluoromethyl)pyridin-4-yl]pyrimidin-4-yl]oxy]-N,N-diethylacetamide] in this work. An IC50 of 32 nM was found for `CC(=O)N1CCC(Oc2ccc(CCOc3nc(N)nc(-c4ccccc4)c3-c3cc(C)nc(C(F)(F)F)c3)cc2)C1` (stereo not drawn) [Example 25, 1-(3-(4-(2-((2-amino-5-(2-methyl-6-(trifluoromethyl)pyridin-4-yl)-6-phenylpyrimidin-4-yl)oxy)ethyl)phenoxy)pyrrolidin-1-yl)ethan-1-one] in this work. An IC50 of 45.3 nM was found for `Cc1cc(-c2c(OC3COC3)nc(N)nc2-c2ccc(F)cc2)cc(C(F)F)n1` [Example 34, 5-(2-(difluoromethyl)-6-methylpyridin-4-yl)-4-(4-fluorophenyl)-6-(oxetan-3-yloxy)pyrimidin-2-amine] in this work. An IC50 of 31 nM was found for `Cc1cc(-c2c(OCCc3ccc(N4CCN(C5COC5)CC4)cc3)nc(N)nc2-c2ccc(F)cc2)cc(C(F)F)n1` [Example 64, 5-[2-(difluoromethyl)-6-methylpyridin-4-yl]-4-(4-fluorophenyl)-6-(2-[4-[4-(oxetan-3-yl)piperazin-1-yl]phenyl]ethoxy)pyrimidin-2-amine] in this work. An IC50 of 816 nM was found for `CCN(CC)C(=O)CN(C)c1nc(N)nc(-c2ccccc2)c1-c1cc(C)nc(C(F)(F)F)c1` [Example 38, 2-((2-amino-5-(2-methyl-6-(trifluoromethyl)pyridin-4-yl)-6-phenylpyrimidin-4-yl)(methyl)amino)-N,N-diethylacetamide] in this work. An IC50 of 1780 nM was found for `Cc1cc(-c2c(CN(C)C)nc(N)nc2-c2ccccc2)cc(C(F)(F)F)n1` [Example 23, 4-((dimethylamino)methyl)-5-(2-methyl-6-(trifluoromethyl)pyridin-4-yl)-6-phenylpyrimidin-2-amine] in this work. An IC50 of 66.5 nM was found for `Cc1cc(-c2c(OC3CCOCC3)nc(N)nc2-c2ccc(F)cc2)cc(C(F)F)n1` [Example 33, 5-(2-(difluoromethyl)-6-methylpyridin-4-yl)-4-(4-fluorophenyl)-6-((tetrahydro-2H-pyran-4-yl)oxy)pyrimidin-2-amine] in this work. An IC50 of 5.2 nM was found for `Cc1cc(-c2c(OCC(=O)NC3CC3)nc(N)nc2-c2ccc(F)cc2)cc(C(F)F)n1` [Example 42, 2-((2-amino-5-(2-(difluoromethyl)-6-methylpyridin-4-yl)-6-(4-fluorophenyl)pyrimidin-4-yl)oxy)-N-cyclopropylacetamide] in this work. In the case of `Cc1cc(-c2c(OCCc3ccc(N4CCC(=O)CC4)cc3)nc(N)nc2-c2ccccc2)cc(C(F)(F)F)n1` [Example 26, 1-(4-(2-((2-amino-5-(2-methyl-6-(trifluoromethyl)pyridin-4-yl)-6-phenylpyrimidin-4-yl)oxy)ethyl)phenyl)piperidin-4-one], the IC50 is reported as 43 nM and 26.8 nM. An IC50 of 21.3 nM was found for `Cc1cc(-c2c(Oc3ccccc3)nc(N)nc2-c2ccc(F)cc2)cc(C(F)F)n1` [Example 47, 5-(2-(difluoromethyl)-6-methylpyridin-4-yl)-4-(4-fluorophenyl)-6-phenoxypyrimidin-2-amine] in this work. An IC50 of 28 nM was found for `Cc1cc(-c2c(OCCc3ccc(N4CCN(S(C)(=O)=O)CC4)cc3)nc(N)nc2-c2ccc(F)cc2)cc(C(F)F)n1` [Example 58, 5-(2-(difluoromethyl)-6-methylpyridin-4-yl)-4-(4-fluorophenyl)-6-(4-(4-(methylsulfonyl)piperazin-1-yl)phenethoxy)pyrimidin-2-amine] in this work.

Same assay, conditions: Tag-lite adenosine A2A receptor ligand binding, HTRF
An IC50 of 14 nM was found for `Cc1cc(-c2c(OCc3nnn(CC4CC4)n3)nc(N)nc2-c2ccc(F)cc2)cc(C(F)F)n1` [Example 220, 4-((2-(cyclopropylmethyl)-2H-tetrazol-5-yl)methoxy)-5-(2-(difluoromethyl)-6-methylpyridin-4-yl)-6-(4-fluorophenyl)pyrimidin-2-amine] in this work. An IC50 of 13 nM was found for `CCc1nnn(C)c1COc1nc(N)nc(-c2ccc(F)cc2)c1-c1cc(C)nc(C(F)F)c1` [Example 200, 5-(2-(difluoromethyl)-6-methylpyridin-4-yl)-4-((4-ethyl-1-methyl-1H-1,2,3-triazol-5-yl)methoxy)-6-(4-fluorophenyl)pyrimidin-2-amine] in this work. An IC50 of 306 nM was found for `Cc1cc(-c2c(OCc3nccn3CCC(C)(C)C(=O)O)nc(N)nc2-c2ccc(F)cc2)cc(C(F)F)n1` [Example 216, 4-(2-(((2-amino-5-(2-(dilfluoromethyl)-6-methylpyridin-4-yl)-6-(4-fluorophenyl)pyrimidin-4-yl)oxy)methyl)-1H-imidazol-1-yl)-2,2-dimethylbutanoic acid] in this work. An IC50 of 15 nM was found for `CCn1cnnc1COc1nc(N)nc(-c2ccc(F)cc2)c1-c1cc(C)nc(C(F)F)c1` [Example 222, 5-(2-(difluoromethyl)-6-methylpyridin-4-yl)-4-((4-ethyl-4H-1,2,4-triazol-3-yl)methoxy)-6-(4-fluorophenyl)pyrimidin-2-amine] in this work.
